Assay results: ChEMBL document CHEMBL1938253, “Design and synthesis of novel macrocyclic 2-amino-6-arylpyrimidine Hsp90 inhibitors” (Bioorg Med Chem Lett, 2012)
≈ marks a conversion by molar mass, not a printed value.

Tests used:
[1] = molecular target: Heat shock protein HSP 90-alpha (Homo sapiens, UniProt P07900)
Description: Binding affinity to N-terminus biotinylated human Hsp90 alpha by surface plasmon resonance assay

physchem = conditions: fasted state simulated intestinal fluid
in vitro [2] = conditions: human, liver microsomes
in vitro [3] = conditions: mouse, liver microsomes
[4] = Tmax in athymic nu/nu mouse at 200 mg/kg, po; format: ADME, organism-based; design: dose 200 mg/kg, route oral; conditions: in vivo
[5] = Half life in athymic nu/nu mouse at 10 mg/kg, iv; format: ADME, organism-based; design: dose 10 mg/kg, route intravenous; conditions: in vivo

SMILES	Kd [1] [nM]	solubility (physchem) [µM]	microsomal CLint at 1 h, 5 µM (in vitro [2]) [µL/min/mg]	microsomal CLint at 1 h, 5 µM (in vitro [3]) [µL/min/mg]	Tmax [4] [min]	half-life [5] [min]
CCOc1cc(C)c2cc1C(=O)NCCCOc1cccc(c1)Sc1cc-2nc(N)n1	10	186 (≈ 81.2 µg/mL)	–	–	–	–
Cc1ccc2cc1-c1cc(nc(N)n1)Sc1cccc(c1)OCCCO2	120	–	–	–	–	–
COc1cc(C)c2cc1C(=O)NCCCOc1cccc(c1)Sc1cc-2nc(N)n1	5.8	260 (≈ 110 µg/mL)	–	–	–	–
Cc1cc(C)c2cc1C(=O)NCCCCCNC(=O)CCSc1cc-2nc(N)n1	–	169 (≈ 69.9 µg/mL)	1.7	1.8	–	–
Cc1cc(C)c2cc1C(=O)NCCCC(=O)NCCSc1cc-2nc(N)n1	0.65	117 (≈ 45.1 µg/mL)	1	15	–	–
Cc1cc(C)c2cc1C(=O)NCCOC(=O)NCCSc1cc-2nc(N)n1	0.7	911 (≈ 353 µg/mL)	3.5	7.3	–	–
Cc1cc(C)c2cc1C(=O)NCCNC(=O)OCCSc1cc-2nc(N)n1	0.8	111 (≈ 43 µg/mL)	9.3	21	–	–
Cc1cc(C)c2cc1C(=O)NCCCCOc1cccc(c1)Sc1cc-2nc(N)n1	–	69 (≈ 29 µg/mL)	–	–	–	–
Cc1cc(C)c2cc1C(=O)NCCNC(=O)CCCSc1cc-2nc(N)n1	0.61	106 (≈ 40.9 µg/mL)	5.4	3.6	–	–
Cc1cc(C)c2cc1C(=O)NCCCCCOc1cccc(c1)Sc1cc-2nc(N)n1	–	39 (≈ 16.9 µg/mL)	–	–	–	–
Nc1nc2cc(n1)-c1cc(c(Cl)cc1Cl)OCCCCOc1cccc(c1)S2	11	< 7	–	–	–	–
Cc1cc(C)c2cc1C(=O)NCCCCNC(=O)CCSc1cc-2nc(N)n1	–	553 (≈ 221 µg/mL)	5.1	3.5	–	–
CSc1nc(N)nc(-c2ccc3c4c(cc(Cl)cc24)COC3)n1	3.4	29 (≈ 10 µg/mL)	43	60	30	15
